Measurements as given in patent US20250339567A1, “COMPOUNDS WITH IMPROVED PHARMACOKINETICS FOR IMAGING AND THERAPY OF CANCER” (priority 2019, published 2025).
Starred links: 1 amine or outer side, 2 acyl side, 3 side chain; linkers in the order of their positions; H or OH if unused. Non-standard residues stand in square brackets, D forms with d. Residues, ends and D or L forms follow the SMILES beside them. *: point of attachment. DOTA = O=C(O)CN1CCN(CC(=O)O)CCN(CC(=O)*)CCN(CC(=O)O)CC1; αMeW = C[C@](N)(Cc1c[nH]c2ccccc12)C(=O)O; Sta = CC(C)C[C@H](N)[C@@H](O)CC(=O)O; Bta = N[C@@H](Cc1csc2ccccc12)C(=O)O; Gly(cPent) = N[C@H](C(=O)O)C1CCCC1; X1 = O=C(CN1CCC(N[*:1])CC1)[*:2]; Chg = N[C@H](C(=O)O)C1CCCCC1; dOrn = NCCC[C@@H](N)C(=O)O; hSer = N[C@@H](CCO)C(=O)O; Nle = CCCC[C@H](N)C(=O)O; dDap = NC[C@@H](N)C(=O)O; βAla = NCCC(=O)O; Sar = CNCC(=O)O

Test system: not listed separately
Experiment: Plasma studies: metabolic stability in vitro in human plasma (radio RP-HPLC)
Format: in vitro ADME
Conditions: not given
Experimental: Metabolic stability in vitro was determined applying a procedure published by Linder et al. that was slightly modified. Immediately after labeling, human (200 μL) or murine (100 μL) plasma was added and the mixture was incubated at 37° C. for 72±2 h (or 6±0.5 h). Proteins were precipitated by treatment with ice-cold EtOH (150 μL [human], 100 μL [murine]) and ice-cold MeCN (450 μL [human], 300 μL [murine]), followed by centrifugation for 20 min at 13000 rpm. The supernatants were decanted and further analyzed using radio RP-HPLC. […]

| Compound | Amount of intact tracer after incubation in human plasma for 72 ± 2 h (n = 2) |
| --- | --- |
| CC(C)C[C@H](NC(=O)C[C@H](O)[C@H](CC(C)C)NC(=O)[C@H](Cc1c[nH]cn1)NC(=O)CNC(=O)[C@@H](NC(=O)[C@H](C)NC(=O)[C@](C)(Cc1c[nH]c2ccccc12)NC(=O)[C@H](CCC(N)=O)NC(=O)[C@@H](Cc1ccccc1)NC(=O)CN1CCC(NC(=O)CN2CCN(CC(=O)O)CCN(CC(=O)O)CCN(CC(=O)O)CC2)CC1)C1CCCCC1)C(N)=O [DOTA-[α-Me-Trp^8, Chg^10]MJ9] ({DOTA}-[X1][dF]Q[αMeW]A[Chg]GH[Sta]L-NH2) | 22.6 ± 1.9 |
| CC(C)C[C@H](NC(=O)C[C@H](O)[C@H](CC(C)C)NC(=O)[C@H](Cc1c[nH]cn1)NC(=O)CNC(=O)[C@@H](NC(=O)[C@H](CO)NC(=O)[C@H](Cc1c[nH]c2ccccc12)NC(=O)[C@H](CCC(N)=O)NC(=O)[C@@H](Cc1ccccc1)NC(=O)CN1CCC(NC(=O)CN2CCN(CC(=O)O)CCN(CC(=O)O)CCN(CC(=O)O)CC2)CC1)C(C)C)C(N)=O [DOTA-[Ser^9]MJ9] ({DOTA}-[X1][dF]QWSVGH[Sta]L-NH2) | 9.8 ± 4.3 |
| CC(C)C[C@H](NC(=O)C[C@H](O)[C@H](CC(C)C)NC(=O)[C@H](Cc1c[nH]cn1)NC(=O)CNC(=O)[C@@H](NC(=O)[C@H](C)NC(=O)[C@](C)(Cc1c[nH]c2ccccc12)NC(=O)[C@H](CCC(N)=O)NC(=O)[C@@H](CCCNC(=N)N)NC(=O)CN1CCC(NC(=O)CN2CCN(CC(=O)O)CCN(CC(=O)O)CCN(CC(=O)O)CC2)CC1)C(C)C)C(N)=O [DOTA-[arg^6, α-Me-Trp^8]MJ9] ({DOTA}-[X1][dR]Q[αMeW]AVGH[Sta]L-NH2) | 20.1 ± 0.7 |
| CC(C)C[C@H](NC(=O)C[C@H](O)[C@H](CC(C)C)NC(=O)[C@H](Cc1c[nH]cn1)NC(=O)CN(C)C(=O)[C@@H](NC(=O)[C@H](C)NC(=O)[C@H](Cc1c[nH]c2ccccc12)NC(=O)[C@H](CCC(N)=O)NC(=O)[C@@H](Cc1ccccc1)NC(=O)CN1CCC(NC(=O)CN2CCN(CC(=O)O)CCN(CC(=O)O)CCN(CC(=O)O)CC2)CC1)C(C)C)C(N)=O [DOTA-[N—Me-Gly^11]MJ9] | 6.3 ± 0.6 |
| CC(C)C[C@H](NC(=O)C[C@H](O)[C@H](CC(C)C)NC(=O)[C@H](Cc1c[nH]cn1)NC(=O)CNC(=O)[C@@H](NC(=O)[C@H](C)NC(=O)[C@](C)(Cc1c[nH]c2ccccc12)NC(=O)[C@H](CCC(N)=O)NC(=O)[C@@H](Cc1ccccc1)NC(=O)[C@H]1CC[C@H](CNC(=O)CN2CCN(CC(=O)O)CCN(CC(=O)O)CCN(CC(=O)O)CC2)CC1)C(C)C)C(N)=O [DOTA-[Txa^5, α-Me-Trp^8]MJ9] | 30.6 ± 0.8 |
| CC(C)C[C@H](NC(=O)C[C@H](O)[C@H](CC(C)C)NC(=O)[C@H](Cc1c[nH]cn1)NC(=O)CN(C)C(=O)[C@@H](NC(=O)[C@H](C)NC(=O)[C@H](Cc1csc2ccccc12)NC(=O)[C@H](CCC(N)=O)NC(=O)[C@@H](Cc1ccccc1)NC(=O)CN1CCC(NC(=O)CN2CCN(CC(=O)O)CCN(CC(=O)O)CCN(CC(=O)O)CC2)CC1)C(C)C)C(N)=O [DOTA-[Bta^8, N—Me-Gly^11]MJ9] ({DOTA}-[X1][dF]Q[Bta]AV[Sar]H[Sta]L-NH2) | 3.0 ± 0.2 |
| CC(C)C[C@H](NC(=O)C[C@H](O)[C@H](CC(C)C)NC(=O)[C@H](Cc1c[nH]cn1)NC(=O)CNC(=O)[C@@H](NC(=O)[C@H](C)NC(=O)[C@](C)(Cc1c[nH]c2ccccc12)NC(=O)[C@H](CCC(N)=O)NC(=O)[C@@H](Cc1ccccc1)NC(=O)CN1CCC(NC(=O)[C@@H](CN)NC(=O)[C@@H](CCCN)NC(=O)CN2CCN(CC(=O)O)CCN(CC(=O)O)CCN(CC(=O)O)CC2)CC1)C(C)C)C(N)=O [DOTA-orn^3-dap^4-[α-Me-Trp^8]MJ9] ({DOTA}-[dOrn][dDap][X1][dF]Q[αMeW]AVGH[Sta]L-NH2) | 16.6 ± 0.8 |
| CCCC[C@H](NC(=O)[C@H](Cc1ccccc1)NC(=O)[C@H](Cc1c[nH]cn1)NC(=O)CCNC(=O)[C@@H](NC(=O)[C@H](C)NC(=O)[C@](C)(Cc1c[nH]c2ccccc12)NC(=O)[C@H](CCC(N)=O)NC(=O)[C@@H](Cc1ccccc1)NC(=O)CN1CCN(CC(=O)O)CCN(CC(=O)O)CCN(CC(=O)O)CC1)C(C)C)C(N)=O [DOTA-[α-Me-Trp^8]UL] ({DOTA}-[dF]Q[αMeW]AV[βAla]HF[Nle]-NH2) | 10.2 ± 2.7 |
| CC(C)C[C@H](NC(=O)C[C@H](O)[C@H](CC(C)C)NC(=O)[C@H](Cc1c[nH]cn1)NC(=O)CNC(=O)[C@@H](NC(=O)[C@H](C)NC(=O)[C@H](Cc1csc2ccccc12)NC(=O)[C@H](CCC(N)=O)NC(=O)[C@@H](Cc1ccccc1)NC(=O)CN1CCC(NC(=O)[C@@H](CN)NC(=O)[C@@H](CCCN)NC(=O)CN2CCN(CC(=O)O)CCN(CC(=O)O)CCN(CC(=O)O)CC2)CC1)C(C)C)C(N)=O [DOTA-orn^3-dap^4-[Bta^8]MJ9] ({DOTA}-[dOrn][dDap][X1][dF]Q[Bta]AVGH[Sta]L-NH2) | 2.7 ± 0.3 |
| CCCC[C@H](NC(=O)[C@H](Cc1ccccc1)NC(=O)[C@H](Cc1c[nH]cn1)NC(=O)CCNC(=O)[C@@H](NC(=O)[C@H](C)NC(=O)[C@H](Cc1csc2ccccc12)NC(=O)[C@H](CCC(N)=O)NC(=O)[C@@H](Cc1ccccc1)NC(=O)CN1CCN(CC(=O)O)CCN(CC(=O)O)CCN(CC(=O)O)CC1)C(C)C)C(N)=O [DOTA-[Bta^8]UL] ({DOTA}-[dF]Q[Bta]AV[βAla]HF[Nle]-NH2) | 0 ± 0 |
| CC(C)C[C@H](NC(=O)C[C@H](O)[C@H](CC(C)C)NC(=O)[C@H](Cc1c[nH]cn1)NC(=O)CNC(=O)[C@@H](NC(=O)[C@H](C)NC(=O)[C@](C)(Cc1c[nH]c2ccccc12)NC(=O)[C@H](CCC(N)=O)NC(=O)[C@@H](Cc1ccccc1)NC(=O)CN1CCC(NC(=O)CN2CCN(CC(=O)O)CCN(CC(=O)O)CCN(CC(=O)O)CC2)CC1)C1CCCC1)C(N)=O [DOTA-[α-Me-Trp^8, Cpg^10]MJ9] ({DOTA}-[X1][dF]Q[αMeW]A[Gly(cPent)]GH[Sta]L-NH2) | 25.5 ± 1.9 |
| CC(C)C[C@H](NC(=O)C[C@H](O)[C@H](CC(C)C)NC(=O)[C@H](Cc1c[nH]cn1)NC(=O)CN(C)C(=O)[C@@H](NC(=O)[C@H](C)NC(=O)[C@](C)(Cc1c[nH]c2ccccc12)NC(=O)[C@H](CCC(N)=O)NC(=O)[C@@H](Cc1ccccc1)NC(=O)CN1CCC(NC(=O)CN2CCN(CC(=O)O)CCN(CC(=O)O)CCN(CC(=O)O)CC2)CC1)C(C)C)C(N)=O [DOTA-[α-Me-Trp^8, N—Me-Gly^11]MJ9] | 14.3 ± 1.2 |
| CC(C)C[C@H](NC(=O)C[C@H](O)[C@H](CC(C)C)NC(=O)[C@H](Cc1c[nH]cn1)NC(=O)CNC(=O)[C@@H](NC(=O)[C@H](C)NC(=O)[C@H](Cc1c[nH]c2ccccc12)NC(=O)[C@H](CCO)NC(=O)[C@@H](CCCNC(=N)N)NC(=O)CN1CCC(NC(=O)CN2CCN(CC(=O)O)CCN(CC(=O)O)CCN(CC(=O)O)CC2)CC1)C(C)C)C(N)=O [DOTA-[arg^6, Hse^7]MJ9] ({DOTA}-[X1][dR][hSer]WAVGH[Sta]L-NH2) | 18.2 ± 1.9 |
| CCCC[C@H](NC(=O)[C@H](Cc1ccccc1)NC(=O)[C@H](Cc1c[nH]cn1)NC(=O)CCNC(=O)[C@@H](NC(=O)[C@H](C)NC(=O)[C@H](Cc1c[nH]c2ccccc12)NC(=O)[C@H](CCC(N)=O)NC(=O)[C@@H](Cc1ccccc1)NC(=O)CN1CCN(CC(=O)O)CCN(CC(=O)O)CCN(CC(=O)O)CC1)C(C)C)C(N)=O [UL, reference compound] ({DOTA}-[dF]QWAV[βAla]HF[Nle]-NH2) | 4.3 ± 0.2 |

Target: T1, GRPR (Homo sapiens, UniProt P30550)
T1 construct: endogenous in cells; host or cells: PC-3 cells
T1 sequence (P30550 whole entry): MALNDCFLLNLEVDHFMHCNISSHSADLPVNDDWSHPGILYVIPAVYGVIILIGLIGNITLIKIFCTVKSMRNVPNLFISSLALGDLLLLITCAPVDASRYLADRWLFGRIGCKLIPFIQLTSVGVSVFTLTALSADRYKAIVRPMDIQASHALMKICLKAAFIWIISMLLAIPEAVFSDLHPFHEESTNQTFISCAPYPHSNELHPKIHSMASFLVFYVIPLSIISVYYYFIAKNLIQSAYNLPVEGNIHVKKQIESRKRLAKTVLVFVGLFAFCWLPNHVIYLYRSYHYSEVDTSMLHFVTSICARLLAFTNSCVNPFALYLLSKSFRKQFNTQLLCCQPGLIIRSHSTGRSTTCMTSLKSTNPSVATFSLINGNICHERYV
Experiment: Determination of GRPR affinity (IC50), competition with [D-3-[125I]I-Tyr6]MJ9 on PC-3 cells
Format: binding
Conditions: IC50 ± SD (n = 3), Table 3, [D-3-[125I]I-Tyr6]MJ9 (c = 0.2 nM), 2 h, r.t., HBSS + 1% BSA
Experimental: The reference ligand for IC50 studies ([D-3-[^125I]I-Tyr^6]MJ9) is prepared according to a previously published procedure. Briefly, 0.2 mg of [D-Tyr^6]MJ9 are dissolved in 20 μL Tracepur water and 280 μL TRIS buffer (25 mm TRIS HCl, 0.4 M NaCl, pH=7.9). After addition of the solution to a vial containing 150 μg Iodo-Gen® (1,3,4,6-Tetrachloro-3α,6α-diphenylglycouril, surface-bound), 5.0 μL (16 MBq) [^125I]Nal(74 TBq/mmol, 3.1 GBq/mL, 40 mM NaOH, Hartmann Analytic, Braunschweig, Germany) are added.
The GRPR-positive PC-3 cells are cultured in Dublecco modified Eagle medium/Nutrition Mixture F-12 with Glutamax-I (1:1) (Invitrigon), supplemented with 10% fetal calf serum and maintained at 37° C. in a humidified 5% CO2 atmosphere.
After removal of the culture medium, the cells are washed once with 500 μL of HBSS (Hank's balanced salt solution, Biochrom, Berlin, Germany, with addition of 1% bovine serum albumin (BSA)) and left in 200 μL HBSS (1% BSA) for 9 min at room temperature for equilibration. Next, 25 μL per well of solutions, containing either HBSS (1% BSA) as control or the respective ligand in increasing concentration (10^−10 M-10^−4 M in HBSS), are added with subsequent addition of 25 μL of [D-3-[^125I]I-Tyr^6]MJ9 (2.0 nM) in HBSS (1% BSA).
All experiments are performed in triplicate for each concentration. After 2 h incubation at room temperature, the experiment is terminated by removal of the medium and consecutive rinsing with 300 μL of HBSS. The media of both steps are combined in one fraction and represent the amount of free radiolabeled reference. Afterwards, the cells are lysed with 300 μL of 1 M NaOH for at least 15 min and united with the 300 μL NaOH of the following washing step. Quantification of bound and free radiolabeled reference is accomplished in a γ-counter.
IC50 determination for each ligand was repeated twice.

| Compound | IC50 [nM] |
| --- | --- |
| CC(C)C[C@H](NC(=O)C[C@H](O)[C@H](CC(C)C)NC(=O)[C@H](Cc1c[nH]cn1)NC(=O)CNC(=O)[C@@H](NC(=O)[C@H](C)NC(=O)[C@H](Cc1csc2ccccc12)NC(=O)[C@H](CCC(N)=O)NC(=O)[C@@H](Cc1ccccc1)NC(=O)CN1CCC(NC(=O)CN2CCN(CC(=O)O)CCN(CC(=O)O)CCN(CC(=O)O)CC2)CC1)C(C)C)C(N)=O [[^natGa]DOTA-[Bta^8]MJ9, metal not drawn] ({DOTA}-[X1][dF]Q[Bta]AVGH[Sta]L-NH2) | 3.06 ± 0.15 |
